The values that follow come from US20250188075A1, “SUBSTITUTED HETEROCYCLIC CSNK1 INHIBITORS” (The Broad Institute, Inc., priority 2022, published 2025).

Each structure is given as a SMILES string. pIC50: −log10 of the molar value. Read-outs that look alike come from different tables or passages of the source. Where only a bound is given, the exact number is not on record here.

Series [1] concerns the target human CSNK1A1 (Homo sapiens (Human), UniProt P48729). Put plainly: CSNK1A1 assay (ADP-Glo, 1 μM ATP). It is filed as biochemical. The settings on record: median, read-out: CSNK1A1 Low ATP IC50 [mol/l] (median). How it is done: CSNK1A1-inhibitory activity of compounds of the present invention in presence of 1 μM adenosine-tri-phosphate (ATP) was quantified employing the CSNK1A1 assay as described in the following paragraphs. In essence, the enzyme activity is measured by quantification of the adenosine-di-phosphate (ADP), which is generated as a co-product of the enzyme reaction, via the “ADP-Glo™ Kinase Assay” kit from the company Promega. This detection system works as follows: In a first step the ATP not consumed in the kinase reaction is quantitatively converted to CAMP employing an adenylate cyclase (“ADP-Glo-reagent”), then the adenylate cyclase is stopped and the ADP generated in the kinase reaction converted to ATP which generates in a luciferase-based reaction a glow-luminescence signal (“Kinase Detection Reagent”).
Recombinant fusion protein of N-terminal Glutathion-S-Transferase (GST) and full-length human CSNK1A1, expressed by baculovirus infected insect cells and purified via Glutathion affinity chromatography, was purchased from Life Technologies (product no. PV4174) and used as enzyme. As substrate for the kinase reaction the biotinylated peptide biotin-Ahx-KRRRAL-pS-VASLPGL (C-terminus in amide form) was used which can be purchased e.g. from the company Biosyntan (Berlin-Buch, Germany).
For the assay 50 nl of a 100-fold concentrated solution of the test compound in DMSO was pipetted into a white 1536-well microtiter plate (Greiner Bio-One, Frickenhausen, Germany), 2 μL of a solution of CSNK1A1 in aqueous assay buffer [50 mM HEPES pH 7.5, 10% (v/v) glycerol, 10 mM MgCl2, 50 mM NaCl, 1 mM dithiothreitol, 0.01% (w/v) bovine serum albumin, 0.01% (v/v) Triton X-100] were added and the mixture was incubated for 15 min at 22° C. to allow pre-binding of the test compounds to the enzyme before the start of the kinase reaction. Then the kinase reaction was started by the addition of 3 μL of a solution of ATP (1.67 μM=>final conc. in the 5 μL assay volume is 1 μM) and peptide substrate (50 μM=>final conc. in the 5 μL assay volume is 30 μM) in assay buffer and the resulting mixture was incubated for a reaction time of 30 min at 22° C. The concentration of CSNK1A1 was adjusted depending of the activity of the enzyme lot and was chosen appropriate to have the assay in the linear range, a typical concentrations are about 0.0375 ng/μL. The reaction was stopped by the addition of 2.5 μL of “ADP-Glo-reagent” (1:1.5 fold diluted with water) and the resulting mixture was incubated at 22° C. for 1 h to convert the ATP not consumed in the kinase reaction completely to CAMP. Subsequently 2.5 μL of the “kinase detection reagent” (1.2 fold more concentrated than recommended by the producer) were added, the resulting mixture was incubated at 22° C. for 1 h and then the luminescence measured with a suitable measurement instrument (e.g. Viewlux™ from Perkin-Elmer). The amount of emitted light was taken as a measure for the amount of ADP generated and thereby for the activity of the CSNK1A1.
The data were normalised (enzyme reaction without inhibitor=0% inhibition, all other assay components but no enzyme=100% inhibition).

Series [2] relates to total-p53 in MCF-7 cells. Put plainly: HTRF total-p53 in MCF-7 cells. Format: cell-based. The settings on record: median, read-out: HTRF total-p53 MCF-7, IC50 - [mol/l] (median). Here is the method: Day 1: MCF-7 cells were seeded (10,000 cells in 12 μl/well) in a 384-well-Small Volume-plate (Greiner Bio One #784075) in culture medium (RPMI 1640; (Biochrom; #F 1275; without PhenolRed)+FCS (final: 10%); (Biochrom; #S 0415)+Insulin (bovine); (final: 10 μg/mL, Biochrom; #K 3510)+L-Alanyl-L-Glutamine; (final: 2 mM, Biochrom; #K 0302)+Natriumpyruvat; (final: 1 mM, Biochrom; #L 0473)+Non Essentiell Amino Acids; (final: 1×, Biochrom; #K 0293)). The cells were then treated with different compounds or DMSO (added with the HP Dispenser) and incubated for 2 h at 37° C. Following incubation, the cells were lysed in 4 μl of lysis buffer for 1 h shaking at RT. Finally, 4 μl of antibody solution was added and the samples are incubated overnight at RT, shaking.
Total-p53 was detected in a sandwich assay format using 2 different specific antibodies, one labeled with Eu3+-Cryptate (donor) and the second with d2 (acceptor). Kit: HTRF total p53 detection assay (Cisbio Cat: 64T53PEG).
Day 2: the plate was read on PHERAstar FS (BMG Labtech settings; optic module: HTRF; integration start: 60 us; integration time: 400 μs; flash lamp). IC50 values were calculated using the DRC application in ShiNy Analysis Platform-SNAP.”

In series [3] the test system is LoVo cells. Put plainly: LoVo cell proliferation assay, CTG method. Format: cell-based. The settings on record: 96 h, median, read-out: 2D-PROLI LoVo CTG 96 h, IC50 - [mol/l] (median). How it is done:
CELL PROLIFERATION ASSAY CTG METHOD, 384-well version: Day 1: plate 400 cells/30 μL/well in growth medium (RPMI 1640 (Gibco #61870-10; with Glutamax)+10% FBS) in 384-well black plates (Corning #3571). Plated sister wells in a separate plate for time zero determination. Incubated all plates overnight at 37° C. Day 2: added test compounds in serial dilutions using the HP D300 Digital Dispenser and incubate at 37° C. for 96 h. Measured time zero plate: add 30 μL/well CTG solution (Promega CellTiter-Glo solution (catalog #G7573)) to wells in time zero plate; incubated for 2 minutes in a orbital shaker to induce cell lysis; allowed the plate to incubate at room temperature for additional 10 min to stabilize luminescent signal and read luminescence on PheraStar (rapid mode-0.02 sec/well; GAIN 3000). Day 6: Added 30 μL/well CTG solution to all test wells, incubated for 2 minutes in a orbital shaker to induce cell lysis; allowed the plate to incubate at room temperature for additional 10 min to stabilize luminescent signal and read luminescence on PheraStar (rapid mode-0.02 sec/well; GAIN 3000). Proliferation IC50s were calculated using the DRC application in ShiNy Analysis Platform-SNAP.”

The nature of series [4]: Solubility assay (thermodynamic solubility). It is filed as physicochemical. The settings on record: aqueous buffer; for solubility thermodynamic at 24 h: thermodynamic from solid, mean. Here is the method:
Solubility of solid compound in aqueous buffer was determined by an equilibrium shake flask method. A saturated solution of drug in solvent (˜2 mg/ml solvent) was prepared and the solution was mixed for 24 h to ensure that equilibrium has been reached. The solution was centrifuged to remove the insoluble fraction and the concentration of the compound in solution was determined by HPLC-UV using a standard calibration curve (Kerns, E. H. et al., Solubility Methods in: Drug-like Properties: Concepts, Structure Design and Methods, p 276-286. Burlington, MA: Academic Press 2008).

[5] abbreviates: Homo sapiens, MCF7, 2 h incubation.
Where [6] appears, read: read-out: Thermodynamic Solubility [mg/l] (mean).
Setting [7] is: read-out: Thermodynamic Solubility [μmol/L] (mean).

human CSNK1A1, sequence (P48729 whole entry): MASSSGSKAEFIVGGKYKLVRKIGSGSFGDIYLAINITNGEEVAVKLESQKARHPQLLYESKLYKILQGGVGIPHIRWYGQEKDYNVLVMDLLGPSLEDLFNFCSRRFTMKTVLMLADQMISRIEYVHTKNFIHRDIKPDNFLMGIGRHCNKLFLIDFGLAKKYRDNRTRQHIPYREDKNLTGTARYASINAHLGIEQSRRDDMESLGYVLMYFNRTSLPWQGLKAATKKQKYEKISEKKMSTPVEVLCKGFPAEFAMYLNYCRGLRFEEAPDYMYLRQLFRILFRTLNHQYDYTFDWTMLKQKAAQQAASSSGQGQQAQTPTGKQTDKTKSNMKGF

On to `Cc1cc(CC(=O)Nc2cc(-c3[nH]c4cccnc4c3-c3ccccn3)ccn2)nn1C` [Example 16, 2-(1,5-dimethylpyrazol-3-yl)-N-[4-[3-(2-pyridyl)-^1H-pyrrolo[3,2-b]pyridin-2-yl]-2-pyridyl]acetamide], for which the pIC50 in series [1] was 8.56; in series [2] (setting [5]), 6.71; in series [3] (Homo sapiens), 5.82. Also, the solubility thermodynamic at 24 h in series [4] (setting [6]) came to 2.5 mg/L; in series [4] (setting [7]), 5.9 µmol/L.
In the case of `Cn1nc(CC(=O)Nc2cc(-c3[nH]c4cccnc4c3-c3ccccn3)ccn2)cc1C1CC1` [Example 29, 2-(5-cyclopropyl-1-methyl-pyrazol-3-yl)-N-[4-[3-(2-pyridyl)-^1H-pyrrolo[3,2-b]pyridin-2-yl]-2-pyridyl]acetamide], the pIC50 in series [1] is 8.66; in series [2] (setting [5]) it was 6.70; in series [3] (Homo sapiens), 6.11. Moreover, the solubility thermodynamic at 24 h in series [4] (setting [6]) was < 0.1 mg/L; in series [4] (setting [7]), < 0.22 µmol/L.
The matching figures for `Cc1nc(CC(=O)Nc2cc(-c3[nH]c4cccnc4c3-c3ccccn3)ccn2)cs1` [Example 3, 2-(2-methylthiazol-4-yl)-N-[4-[3-(2-pyridyl)-^1H-pyrrolo[3,2-b]pyridin-2-yl]-2-pyridyl]acetamide]: 8.74, 6.74, 6.44, 9.1 mg/L and 21.3 µmol/L.
On to `Cn1nc(CC(=O)Nc2cc(-c3[nH]c4cccnc4c3-c3ccccn3)ccn2)cc1C(F)(F)F` [Example 21, 2-[1-methyl-5-(trifluoromethyl)pyrazol-3-yl]-N-[4-[3-(2-pyridyl)-^1H-pyrrolo[3,2-b]pyridin-2-yl]-2-pyridyl]acetamide], for which the pIC50 was 8.79 in series [1], 7.01 in series [2] (setting [5]) and 6.37 in series [3] (Homo sapiens). Moreover, the solubility thermodynamic at 24 h was < 0.1 mg/L in series [4] (setting [6]) and < 0.21 µmol/L in series [4] (setting [7]).
Taken in the same sequence, the figures for `Cc1ncc(CC(=O)Nc2cc(-c3[nH]c4cccnc4c3-c3ccccn3)ccn2)o1` [Example 24, 2-(2-methyloxazol-5-yl)-N-[4-[3-(2-pyridyl)-^1H-pyrrolo[3,2-b]pyridin-2-yl]-2-pyridyl]acetamide] were 8.71, 6.76, 5.62, 26.3 mg/L and 64.1 µmol/L.
As to `O=C(Cc1cc(C2CC2)on1)Nc1cc(-c2[nH]c3cccnc3c2-c2ccccn2)ccn1` [Example 27, 2-(5-cyclopropylisoxazol-3-yl)-N-[4-[3-(2-pyridyl)-^1H-pyrrolo[3,2-b]pyridin-2-yl]-2-pyridyl]acetamide], the pIC50 in series [1] is 8.80; in series [2] (setting [5]), 6.77; in series [3] (Homo sapiens), 6.13. The solubility thermodynamic at 24 h in series [4] (setting [6]) was < 0.1 mg/L; in series [4] (setting [7]), < 0.23 µmol/L.
`Cc1nc(CC(=O)Nc2cc(-c3[nH]c4cccnc4c3-c3ccccn3)ccn2)co1` [Example 25, 2-(2-methyloxazol-4-yl)-N-[4-[3-(2-pyridyl)-^1H-pyrrolo[3,2-b]pyridin-2-yl]-2-pyridyl]acetamide]: the results for the pIC50 in series [1], in series [2] (setting [5]) and in series [3] (Homo sapiens) were 8.55, 6.49 and 5.68, respectively. For the same molecule, the solubility thermodynamic at 24 h worked out at 23.1 mg/L in series [4] (setting [6]) and 56.3 µmol/L in series [4] (setting [7]).
`Cn1cnc(CC(=O)Nc2cc(-c3[nH]c4cccnc4c3-c3ccccn3)ccn2)c1` [Example 5, 2-(1-methylimidazol-4-yl)-N-[4-[3-(2-pyridyl)-^1H-pyrrolo[3,2-b]pyridin-2-yl]-2-pyridyl]acetamide]: the results for the pIC50 in series [1], in series [2] (setting [5]) and in series [3] (Homo sapiens) were 8.39, 6.03 and 5.13, respectively. Moreover, the solubility thermodynamic at 24 h in series [4] (setting [6]) was > 409 mg/L; in series [4] (setting [7]), > 1000 µmol/L.
In the case of `O=C(Nc1cc(-c2[nH]c3ccc(F)nc3c2-c2ccccn2)ccn1)[C@@H](CC(F)F)c1ccc(F)cc1` [Example C2, reference compound], the pIC50 is 8.92 in series [1], 7.14 in series [2] (2 h incubation) and 6.94 in series [3]. Moreover, in series [4] (24 h), the “Thermodynamic Solubility [mg/l] (mean)” value turned out to be 0.20 mg/L. The “Thermodynamic Solubility [μmol/L] (mean)” value in series [4] (24 h) turned out to be 0.40 µmol/L.
`Cn1cc(CC(=O)Nc2cc(-c3[nH]c4cccnc4c3-c3ccccn3)ccn2)cn1` [Example 2, 2-(1-methylpyrazol-4-yl)-N-[4-[3-(2-pyridyl)-^1H-pyrrolo[3,2-b]pyridin-2-yl]-2-pyridyl]acetamide]: the pIC50 is 8.38 in series [1], 6.58 in series [2] (setting [5]) and 5.08 in series [3] (Homo sapiens). Besides, the solubility thermodynamic at 24 h in series [4] (setting [6]) was determined as 85.2 mg/L; in series [4] (setting [7]), 208 µmol/L.
With `Cn1cc(C(CC(F)F)C(=O)Nc2cc(-c3[nH]c4cccnc4c3-c3ccccn3)ccn2)cn1` (stereo not shown) [Example 19, 4,4-difluoro-2-(1-methylpyrazol-4-yl)-N-[4-[3-(2-pyridyl)-^1H-pyrrolo[3,2-b]pyridin-2-yl]-2-pyridyl]butanamide], the pIC50 is 8.17 in series [1], 6.39 in series [2] (setting [5]) and 5.26 in series [3] (Homo sapiens). In addition, the solubility thermodynamic at 24 h worked out at 84 mg/L in series [4] (setting [6]) and 177 µmol/L in series [4] (setting [7]).
